Measurements reported in patent US11141423B2, “Methods of screening compounds useful for treatment of a liver disease” (Icahn School of Medicine at Mount Sinai, priority 2010, dated 2021).

How the values were obtained:
CB1R-AT1R heteromer [1] = target: T1, CB1R-AT1R heteromer (UniProt P30556+P47746); experiment: Ang II-mediated pERK in Neuro2A-AT1R cells; format: cell-based
T1 construct: Neuro2A cells expressing endogenous CB1R and recombinant AT1R; expressed in transfected cells; host or cells: Neuro2A stably expressing AT1R (CB1R endogenous)
T1 sequence (P47746 whole entry): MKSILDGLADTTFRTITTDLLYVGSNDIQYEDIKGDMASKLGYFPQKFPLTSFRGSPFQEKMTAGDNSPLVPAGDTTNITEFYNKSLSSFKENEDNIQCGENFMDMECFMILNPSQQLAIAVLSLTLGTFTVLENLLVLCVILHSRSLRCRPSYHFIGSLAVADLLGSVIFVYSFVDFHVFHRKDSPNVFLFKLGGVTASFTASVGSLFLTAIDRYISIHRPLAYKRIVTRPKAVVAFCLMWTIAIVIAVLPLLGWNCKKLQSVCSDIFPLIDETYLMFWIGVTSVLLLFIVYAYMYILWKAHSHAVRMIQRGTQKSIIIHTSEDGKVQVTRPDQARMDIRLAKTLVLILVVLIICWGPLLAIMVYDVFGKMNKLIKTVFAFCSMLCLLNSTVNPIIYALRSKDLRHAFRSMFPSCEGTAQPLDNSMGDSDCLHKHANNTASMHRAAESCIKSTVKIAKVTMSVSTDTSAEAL
T1 sequence (P30556 whole entry): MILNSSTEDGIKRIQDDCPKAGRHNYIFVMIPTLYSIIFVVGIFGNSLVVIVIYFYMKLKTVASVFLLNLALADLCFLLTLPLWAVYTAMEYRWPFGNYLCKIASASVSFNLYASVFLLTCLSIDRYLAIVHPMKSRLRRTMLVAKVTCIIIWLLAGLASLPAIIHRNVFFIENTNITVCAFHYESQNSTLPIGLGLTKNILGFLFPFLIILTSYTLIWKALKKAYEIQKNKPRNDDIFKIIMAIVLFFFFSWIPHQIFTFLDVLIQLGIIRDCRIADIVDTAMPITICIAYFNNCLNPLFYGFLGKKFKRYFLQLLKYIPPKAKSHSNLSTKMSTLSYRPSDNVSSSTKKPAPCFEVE
Experimental: (§1) Generation of HEK293-Transfected Cells and Neuro2A Cell Line Stably Expressing AT1R. These cell lines were generated using standard procedure of transfection and antibiotic selection of expressing cells. Screening of positive cells was carried out by immunostaining of the receptors to evaluate the homogeneity of expression in the clones.
RNAi-mediated CB1R and βarrestin-2 downregulation.
Neuro2A cells expressing endogenous CB1R and recombinant AT1R were pretreated with vehicle or THL (2 μM) for 3 hours in serum free media and stimulated with vehicle (CTL=control) or with the receptor ligand (angiotensin II) for 3 minutes. […] ERK phosphorylation was assessed by Western blot using antibodies to pERK and ERK (n=3-5). […] The cells were processed for infrared detection of pERK.

profibrogenic genes = experiment: Profibrogenic gene expression in liver of CCl4 or vehicle treated mice; format: in vivo
DAGL = conditions: cited from earlier work
AT1R = target: T2, AT1R (Rattus norvegicus, UniProt P25095); experiment: Ang II-mediated pERK in control HSCs (cHSCs), Western blot; format: cell-based; conditions: cHSCs from control rats; Ang II stimulation; THL pretreatment 10 or 30 minutes
T2 construct: a profibrogenic receptor, AT1R, which was also expressed in cHSCs; endogenous in cells; host or cells: primary hepatic stellate cells from control-diet Sprague-Dawley rats (cHSCs)
T2 sequence (P25095 1-359): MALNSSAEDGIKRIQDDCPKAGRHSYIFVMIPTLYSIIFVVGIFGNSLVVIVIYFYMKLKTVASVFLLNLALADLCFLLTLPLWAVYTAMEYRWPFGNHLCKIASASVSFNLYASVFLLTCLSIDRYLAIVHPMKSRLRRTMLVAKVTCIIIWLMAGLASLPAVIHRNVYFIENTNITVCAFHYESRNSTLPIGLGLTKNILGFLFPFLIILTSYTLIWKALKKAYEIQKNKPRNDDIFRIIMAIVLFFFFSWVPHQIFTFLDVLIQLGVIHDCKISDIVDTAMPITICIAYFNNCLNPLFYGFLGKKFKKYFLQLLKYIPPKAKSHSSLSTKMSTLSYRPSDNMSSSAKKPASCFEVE
From the text: HSCs from ethanol treated rats were generated in the laboratory of Dr. Natalia Nieto: Rats (300 g female Sprague-Dawley, N=10/group) were fed the control or ethanol Lieber-DeCarli diets for 8 months (Lieber and DeCarli, 1989). Animals received humane care according to the criteria outlined in the Guide for Care and Use of Laboratory Animals. Details regarding pathology of the liver of the control and alcohol fed rats are described in (Cubero and Nieto, 2008; Urtasun et al., 2009).
Isolation of Hepatic Stellate Cells: These were isolated as described before. (Friedman, S. L. Hepatic stellate cells: protean, multifunctional, and enigmatic cells of the liver. Physiol Rev 88, 125-72 (2008); Teixeira-Clerc, F. et al. CB1 cannabinoid receptor antagonism: a new strategy for the treatment of liver fibrosis. Nat Med 12, 671-6 (2006)).

[2] = test system: α-SMA, TGFβ, pro-collagen α III and pro-collagen α I; experiment: Ang II-mediated fibrogenic response in eHSC, real-time PCR; format: cell-based, rat; conditions: eHSCs, 4 hours, mRNA normalized to GAPDH
Experimental: (§2) Reverse Transcription and Real-Time PCR. Total RNA was isolated from 3×10^8 HSCs using the TRIzol method (Invitrogen, Carlsbad, Calif., USA). RNA (1.0 μg) was reverse-transcribed in 20 μl of buffer containing 50 μM oligo(dT)20, 25 mM MgCl2, 0.1 M dithiothreitol, 40 U/μl RNaseOUT, and 200 U/μl SuperScript III RT for 50 min at 50° C. The reaction was stopped by incubating the samples at 85° C. for 5 min, and 40 μl of nuclease-free water was added. Real-time PCR was performed by using the Brilliant SYBR Green QPCR Master Mix. The PCR template source was either 30 ng of first-strand cDNA or purified DNA standard. Primer sequences used to amplify the desired cDNA are detailed in Table 2. Amplification was performed with a spectrofluorometric thermal cycler (Stratagene). After an initial denaturation step at 95° C. for 10 min, amplification was performed using 40 cycles of denaturation (95° C. for 30 s), annealing (56° C. for 1 min), and extension (72° C. for 1 min). To standardize mRNA levels, we amplified GAPDH, a housekeeping gene, as an internal control. […] For analysis of gene expression, after reverse transcription, the number of copies of mRNA for the indicated transcripts were determined by real-time PCR. Data were normalized to GAPDH mRNA and are expressed as the mean±SD (n=3 in quadruplicate).

[3] = test system: α-SMA, TGFβ, pro-collagen α III and pro-collagen α I; experiment: CGS21680-mediated fibrogenic response in eHSC, real-time PCR; format: cell-based, rat; conditions: eHSCs, 6 hours, mRNA normalized to GAPDH
Experimental: as §2, with “quadruplicate). […]” for “quadruplicate).”

CB1R-AT1R heteromer [4] = target: T3, CB1R-AT1R heteromer (Rattus norvegicus, UniProt P20272+P25095); experiment: Ang II-mediated pERK in activated HSCs (eHSCs), Western blot; format: cell-based; conditions: eHSCs from ethanol treated rats; Ang II stimulation; THL pretreatment 10 or 30 minutes; pERK normalized to total ERK
T3 construct: endogenous in cells; host or cells: primary hepatic stellate cells from ethanol-fed Sprague-Dawley rats (eHSCs)
T3 sequence (P20272 whole entry, one chain of several): as the sequence (P47746 whole entry) above, with D95E counted along it
From the text: Animals received humane care according to the criteria outlined in the Guide for Care and Use of Laboratory Animals.
Isolation of Hepatic Stellate Cells: These were isolated as described before.

CB1R-AT1R heteromer [5] = target: T4, CB1R-AT1R heteromer (Homo sapiens, UniProt P21554+P30556); experiment: Ang II-mediated pERK in HEK293 transfected with AT1R and CB1R; format: cell-based
T4 construct: expressed in transfected cells; host or cells: HEK293
T4 sequence (P21554 whole entry): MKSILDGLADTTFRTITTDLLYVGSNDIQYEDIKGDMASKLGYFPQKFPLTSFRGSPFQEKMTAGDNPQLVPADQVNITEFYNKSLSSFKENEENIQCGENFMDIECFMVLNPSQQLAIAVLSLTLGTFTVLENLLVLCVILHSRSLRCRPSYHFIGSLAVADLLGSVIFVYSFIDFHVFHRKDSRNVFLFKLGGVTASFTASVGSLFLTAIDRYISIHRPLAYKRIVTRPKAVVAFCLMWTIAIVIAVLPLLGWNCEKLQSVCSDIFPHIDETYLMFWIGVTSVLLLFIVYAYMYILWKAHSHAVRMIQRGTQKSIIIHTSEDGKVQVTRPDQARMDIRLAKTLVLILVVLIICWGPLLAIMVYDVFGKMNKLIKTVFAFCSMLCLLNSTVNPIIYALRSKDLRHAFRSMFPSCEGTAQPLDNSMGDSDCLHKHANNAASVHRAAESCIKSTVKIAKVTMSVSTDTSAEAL
T4 sequence (P30556 whole entry): as the sequence (P30556 whole entry) above
Experimental: FIG. 3A. […] ERK phosphorylation was assessed by Western blot using antibodies to pERK and ERK. Data represent mean±SEM (n=4).
as §1

CCCCC/C=C\C/C=C\C/C=C\C/C=C\CCCC(=O)OC(CO)CO [2-AG, 2-arachidonoyl glycerol]
Effect on THL-induced loss of Ang II-mediated signaling (CB1R-AT1R heteromer [1]): reversed
2-AG-mediated ERK1/2 phosphorylation (CB1R-AT1R heteromer [1]; THL pretreated Neuro2A-AT1, constant agonist concentration, increasing doses of 2-AG): concentration-dependent

CCNC(=O)[C@H]1O[C@@H](n2cnc3c(N)nc(NCCc4ccc(CCC(=O)O)cc4)nc32)[C@H](O)[C@@H]1O [CGS21680]
Expression of profibrogenic genes in liver (profibrogenic genes; CCl4 treated mice, acute i.p. injection CGS21680 2 mg/kg, 6 hours): further increased
Expression of profibrogenic genes in liver (profibrogenic genes; non-fibrotic livers from vehicle-treated mice, CGS21680 2 mg/kg i.p.): did not elevate

CCCCCCC(C)(C)c1cc(O)c2c(c1)OC(C)(C)[C@@H]1CC=C(CO)C[C@@H]21 [Hu210]
Effect on AT1R signaling of a non-signaling concentration of CB1R agonist (CB1R-AT1R heteromer [1]): potentiates
Effect on THL-induced loss of Ang II-mediated signaling (CB1R-AT1R heteromer [1]): reversed

O=C(NCCCCCCNC(=O)ON=C1CCCCC1)ON=C1CCCCC1 [RHC80267, 1,6-bis-(cyclohexyloximino-carbonylamino)-hexane]
Inhibition of DAGL versus other lipases (DAGL): inhibit DAGL at concentrations lower than those required to inhibit other lipases

Cc1c(C(=O)NN2CCCCC2)nn(-c2ccc(Cl)cc2Cl)c1-c1ccc(Cl)cc1 [SR141716]
Effect on Ang II-mediated ERK phosphorylation in cHSCs (AT1R): not
Effect on Ang II-mediated increase in expression of profibrogenic markers [2]: prevents
Effect on Ang II-mediated increase in expression of profibrogenic markers ([2]; listed as CB1R antagonist): completely blocked
Effect on CGS-mediated increase in expression of profibrogenic markers ([3]; listed as CB1R antagonist): completely blocked
Effect on CGS-mediated increase in expression of profibrogenic markers ([3]; listed as SR): prevents

CCCCCCCCCCC[C@@H](C[C@@H]1OC(=O)[C@H]1CCCCCC)OC(=O)[C@H](CC(C)C)NC=O [THL, tetrahydrolipstatin]
Effect on Ang II-mediated ERK phosphorylation in eHSCs (CB1R-AT1R heteromer [4]): decreased
Effect on Ang II-mediated ERK phosphorylation in cHSCs (AT1R): not
Effect on Ang II-mediated signaling (pERK) (CB1R-AT1R heteromer [5]; HEK293 co-expressing CB1R and AT1R, 10 nM Ang II 3 minutes, SR 1 μM, THL 1 μM, 1 hour pre-treatment): marked decrease
ERK1/2 phosphorylation upon agonist stimulation of the associated receptor (CB1R-AT1R heteromer [1]; Neuro2A-AT1, THL 2 μM, 3 hours, serum free media, angiotensin II 3 minutes): marked decrease
Effect on Ang II-mediated signaling (blocking 2-AG production) (CB1R-AT1R heteromer [1]; Neuro2A-AT1R): loss
Inhibition of DAGL versus other lipases (DAGL): inhibit DAGL at concentrations lower than those required to inhibit other lipases

Ang II: Angiotensin II, an agonist of AT1R (DRVYIHPF)
Increase in pERK on Ang II stimulation (CB1R-AT1R heteromer [5]): greater increase
pERK levels at concentrations of Ang II superior to 10 nM (CB1R-AT1R heteromer [1]): decrease
pERK levels on Ang II stimulation (CB1R-AT1R heteromer [1]): dose-dependent rapid and transient enhancement

pertussis toxin
Effect on AT1R signaling (Ang II pERK), G protein coupling (CB1R-AT1R heteromer [1]; cells co-expressing CB1R and AT1R, PTX 15 nM, 16 hours, forskolin 1 μM, 30 min): markedly inhibited
